Results taken from patent US20040175813A1, “Mutant P53 proteins and uses thereof” (priority 2002, published 2004).

Tested on: MCF-7 c-Jun over-expressing cells
Experiment: Sensitivity of c-Jun over-expressing cells to apoptotic inducing agents, DNA fragmentation
Format: cell-based, human
Settings: for DNA fragmentation in cells cultured with the agent: FIG. 4A; for Sensitivity of c-Jun over-expressing cells to the apoptotic inducing agent: compared to vector control, FIG. 3
Text: Human MCF-7 cells were stably transfected with wild type transcription factor c-jun and expressed high levels of c-Jun protein. The c-Jun over-expressing MCF-7 cells were obtained from Drs. Michael Birrer (National Institutes of Health, National Cancer Institute, Rockville, Md.) and Paul Brown (Baylor College of Medicine, Houston, Texas). A description of the c-Jun over-expressing MCF-7 cells can be found in Yang et al. (1997) and Smith et al. (1999).
Bax levels were not altered (FIG. 2A).

CC1=C(/C=C/C(C)=C/C=C/C(C)=C/C(=O)Nc2ccc(O)cc2)C(C)(C)CCC1 [N-(4-hydroxyphenyl) retinamide (4-HPR), N-(4-hydroxyphenyl) retinamide]
DNA fragmentation in cells cultured with the agent: high degree of DNA fragmentation | Sensitivity of c-Jun over-expressing cells to the apoptotic inducing agent: highly sensitive

ceramide
DNA fragmentation in cells cultured with the agent: high degree of DNA fragmentation | Sensitivity of c-Jun over-expressing cells to the apoptotic inducing agent: highly sensitive

Cc1c(C)c2c(c(C)c1OC(=O)CCC(=O)O)CC[C@@](C)(CCC[C@H](C)CCC[C@H](C)CCCC(C)C)O2 [vitamin E succinate (VES), vitamin E succinate]
DNA fragmentation in cells cultured with the agent: high degree of DNA fragmentation | Sensitivity of c-Jun over-expressing cells to the apoptotic inducing agent: highly sensitive
